The record followed here is patent publication US12227496B2 (BRISTOL-MYERS SQUIBB COMPANY, priority 2019, dated 2025).

In this test the target is T1, human FXR (Homo sapiens, UniProt Q96RI1).
T1 construct: expressed in transfected cells; host or cells: HEK293 cells stably carrying a 5xGal4-response-element firefly luciferase reporter, transiently transfected with pcDNA3.1-Gal4-FXR
T1 sequence (Q96RI1 262-486 limits assumed): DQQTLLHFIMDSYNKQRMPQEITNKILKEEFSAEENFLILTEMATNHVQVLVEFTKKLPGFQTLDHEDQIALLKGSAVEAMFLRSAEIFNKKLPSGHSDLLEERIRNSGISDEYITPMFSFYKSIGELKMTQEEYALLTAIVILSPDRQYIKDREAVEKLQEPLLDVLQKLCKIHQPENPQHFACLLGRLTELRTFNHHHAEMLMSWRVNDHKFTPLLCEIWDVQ
In words: transient human FXR/Gal4-luciferase reporter assay. The class given is cell-based. Particulars: Gal4-hFXR LBD fusion, luciferase reporter in HEK293 cells; response relative to 8 μM GW-4064. The method in brief: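 HEK293 cells stably carrying a 5×Gal4-response-element firefly luciferase reporter were transiently transfected with Gal4-hFXR. They were then incubated overnight at 37 °C with compound serial dilutions in medium containing 10% charcoal/dextran-stripped FBS. Luminescence was read after Steady-Glo addition.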

Molecules are shown by their SMILES.

What is called EC50 is the concentration at which the effect is half-maximal. Read a low EC50 as an effect from little substance.

As to `CC(C)(C)c1nc(C23CCC(CN(C(=O)C4CCOCC4)c4cccc(-c5ccc(OC(F)F)cc5)c4)(CC2)CC3)no1` [Example 89, N-((4-(5-(tert-butyl)-1,2,4-oxadiazol-3-yl)bicyclo[2.2.2]octan-1-yl)methyl)-N-(4′-(difluoromethoxy)-[1,1′-biphenyl]-3-yl)tetrahydro-2H-pyran-4-carboxamide], the response was half-maximal at 96 nM (EC50). Under `O=C(C1CCC(F)(F)CC1)N(CC12CCC(c3nc(CC4CC4)no3)(CC1)CC2)c1cccc(-c2nc(C3CC3)no2)c1` [Example 46, N-(3-(3-cyclopropyl-1,2,4-oxadiazol-5-yl)phenyl)-N-((4-(3-(cyclopropylmethyl)-1,2,4-oxadiazol-5-yl)bicyclo[2.2.2]octan-1-yl)methyl)-4,4-difluorocyclohexane-1-carboxamide] stands 633 nM.

Compound `CCn1cc(-c2cccc(N(CC34CCC(c5nc(C6CC6)no5)(CC3)CC4)C(=O)C3CCOCC3)c2)oc1=O` [Example 51, N-((4-(3-cyclopropyl-1,2,4-oxadiazol-5-yl)bicyclo[2.2.2]octan-1-yl)methyl)-N-(3-(3-ethyl-2-oxo-2,3-dihydrooxazol-5-yl)phenyl)tetrahydro-2H-pyran-4-carboxamide] registered an EC50 of 1190 nM. `COc1cccc(-c2cccc(N(C(=O)C3CCCCC3)C(C)C34CCC(c5nc(C)no5)(CC3)CC4)c2)c1` (single isomer, unassigned) [Example 95, N-(3′-methoxy-[1,1′-biphenyl]-3-yl)-N-(1-(4-(3-methyl-1,2,4-oxadiazol-5-yl)bicyclo[2.2.2]octan-1-yl)ethyl)cyclohexanecarboxamide]: the EC50 amounted to 6670 nM. In the case of `CC(C)(C)c1noc(C23CCC(CN(C(=O)C4CCS(=O)(=O)CC4)c4cccc(-c5cc(C6CC6)on5)c4)(CC2)CC3)n1` [Example 160, N-((4-(3-(tert-butyl)-1,2,4-oxadiazol-5-yl)bicyclo[2.2.2]octan-1-yl)methyl)-N-(3-(5-cyclopropylisoxazol-3-yl)phenyl)tetrahydro-2H-thiopyran-4-carboxamide 1,1-dioxide], the 50% effective concentration (EC50) was determined as 701 nM. Under `Cc1noc(C23CCC(CN(C(=O)C4CCCCC4)c4cccc(-c5cnc(C6CCOCC6)o5)c4)(CC2)CC3)n1` [Example 33, N-((4-(3-methyl-1,2,4-oxadiazol-5-yl)bicyclo[2.2.2]octan-1-yl)methyl)-N-(3-(2-(tetrahydro-2H-pyran-4-yl)oxazol-5-yl)phenyl)cyclohexanecarboxamide] stands 949 nM. Under `CCCc1ncc(-c2cccc(N(CC34CCC(c5nc(C6CC6)no5)(CC3)CC4)C(=O)C3CCCOC3)c2)o1` (racemic) [Example 30, N-((4-(3-cyclopropyl-1,2,4-oxadiazol-5-yl)bicyclo[2.2.2]octan-1-yl)methyl)-N-(3-(2-propyloxazol-5-yl)phenyl)tetrahydro-2H-pyran-3-carboxamide] stands 145 nM. Compound `Cn1nc(C2CC2)cc1C12CCC(CN(C(=O)C3CCC(F)(F)CC3)c3cccc(-c4cc(C5CC5)on4)c3)(CC1)CC2` [Example 163, N-((4-(3-cyclopropyl-1-methyl-1H-pyrazol-5-yl)bicyclo[2.2.2]octan-1-yl)methyl)-N-(3-(5-cyclopropylisoxazol-3-yl)phenyl)-4,4-difluorocyclohexane-1-carboxamide] returned an EC50 of 130 nM. Compound `CCOc1ncc(-c2cccc(N(CC34CCC(c5noc(C(C)(C)C)n5)(CC3)CC4)C(=O)C3CCOCC3)c2)cn1` [Example 88, N-((4-(5-(tert-butyl)-1,2,4-oxadiazol-3-yl)bicyclo[2.2.2]octan-1-yl)methyl)-N-(3-(2-ethoxypyrimidin-5-yl)phenyl)tetrahydro-2H-pyran-4-carboxamide] showed an EC50 of 227 nM. Under `CC(F)(F)c1nc(C23CCC(CN(C(=O)C4CCS(=O)(=O)CC4)c4cccc(-c5cc(C6CC6)on5)c4)(CC2)CC3)no1` [Example 155, N-(3-(5-cyclopropylisoxazol-3-yl)phenyl)-N-((4-(5-(1,1-difluoroethyl)-1,2,4-oxadiazol-3-yl)bicyclo[2.2.2]octan-1-yl)methyl)tetrahydro-2H-thiopyran-4-carboxamide 1,1-dioxide] stands 289 nM; under `Cn1nc(C2CC2)cc1C12CCC(CN(C(=O)C3CCOCC3)c3cccc(-c4cc(C5CC5)no4)c3)(CC1)CC2` [Example 139, N-((4-(3-cyclopropyl-1-methyl-1H-pyrazol-5-yl)bicyclo[2.2.2]octan-1-yl)methyl)-N-(3-(3-cyclopropylisoxazol-5-yl)phenyl)tetrahydro-2H-pyran-4-carboxamide], 87 nM; under `COc1nccc(-c2cccc(N(CC34CCC(c5nc(C6CC6)no5)(CC3)CC4)C(=O)C3CCOCC3)c2)n1` [Example 84, N-((4-(3-cyclopropyl-1,2,4-oxadiazol-5-yl)bicyclo[2.2.2]octan-1-yl)methyl)-N-(3-(2-methoxypyrimidin-4-yl)phenyl)tetrahydro-2H-pyran-4-carboxamide], 1770 nM.

`CCc1noc(-c2cccc(N(CC34CCC(c5nc(C6CC6)no5)(CC3)CC4)C(=O)C3CCCCC3)c2)n1` [Example 4, N-((4-(3-cyclopropyl-1,2,4-oxadiazol-5-yl)bicyclo[2.2.2]octan-1-yl)methyl)-N-(3-(3-ethyl-1,2,4-oxadiazol-5-yl)phenyl)cyclohexanecarboxamide] gave an EC50 of 49 nM.

`CN1CCN(C(=O)N(CC23CCC(c4nc(C5CC5)no4)(CC2)CC3)c2cccc(-c3nc(C4CC4)no3)c2)CC1` [Example 59, N-((4-(3-cyclopropyl-1,2,4-oxadiazol-5-yl)bicyclo[2.2.2]octan-1-yl)methyl)-N-(3-(3-cyclopropyl-1,2,4-oxadiazol-5-yl)phenyl)-4-methylpiperazine-1-carboxamide]: it took 1380 nM to reach a half-maximal effect (EC50). Under `CCOc1ncc(-c2cccc(N(CC34CCC(c5noc(C(C)(C)F)n5)(CC3)CC4)C(=O)c3ccc(OC(F)F)cc3)c2)cn1` [Example 144, 4-(difluoromethoxy)-N-(3-(2-ethoxypyrimidin-5-yl)phenyl)-N-((4-(5-(2-fluoropropan-2-yl)-1,2,4-oxadiazol-3-yl)bicyclo[2.2.2]octan-1-yl)methyl)benzamide] stands 334 nM; under `CC(F)(F)c1nc(C23CCC(CN(C(=O)C4CCC(F)(F)CC4)c4cccc(-c5cc(C6CC6)no5)c4)(CC2)CC3)no1` [Example 150, N-(3-(3-cyclopropylisoxazol-5-yl)phenyl)-N-((4-(5-(1,1-difluoroethyl)-1,2,4-oxadiazol-3-yl)bicyclo[2.2.2]octan-1-yl)methyl)-4,4-difluorocyclohexane-1-carboxamide], 38 nM. Under `O=C(C1CCS(=O)(=O)CC1)N(CC12CCC(c3nc(C4CC4)no3)(CC1)CC2)c1cccc(-c2cc(C3CC3)no2)c1` [Example 152, N-((4-(3-cyclopropyl-1,2,4-oxadiazol-5-yl)bicyclo[2.2.2]octan-1-yl)methyl)-N-(3-(3-cyclopropylisoxazol-5-yl)phenyl)tetrahydro-2H-thiopyran-4-carboxamide 1,1-dioxide] stands 662 nM.

`O=C(C1CCC(F)(F)CC1)N(CC12CCC(c3nc(C4CC4)no3)(CC1)CC2)c1cccc(-c2nc(C3CC3)no2)c1` [Example 14, N-((4-(3-cyclopropyl-1,2,4-oxadiazol-5-yl)bicyclo[2.2.2]octan-1-yl)methyl)-N-(3-(3-cyclopropyl-1,2,4-oxadiazol-5-yl)phenyl)-4,4-difluorocyclohexane-1-carboxamide] registered an EC50 of 272 nM.

As to `CCn1cc(-c2cccc(N(CC34CCC(c5nc(C6CC6)no5)(CC3)CC4)C(=O)C3CCCOC3)c2)oc1=O` (racemic) [Example 52, N-((4-(3-cyclopropyl-1,2,4-oxadiazol-5-yl)bicyclo[2.2.2]octan-1-yl)methyl)-N-(3-(3-ethyl-2-oxo-2,3-dihydrooxazol-5-yl)phenyl)tetrahydro-2H-pyran-3-carboxamide], the concentration for a half-maximal effect (EC50) amounted to 1330 nM. On to `CCOc1cc(-c2cccc(N(CC34CCC(c5nc(C6CC6)no5)(CC3)CC4)C(=O)C3CCCCC3)c2)ccn1` [Example 78, N-((4-(3-cyclopropyl-1,2,4-oxadiazol-5-yl)bicyclo[2.2.2]octan-1-yl)methyl)-N-(3-(2-ethoxypyridin-4-yl)phenyl)cyclohexane carboxamide], for which a half-maximal effect (EC50) was put at 181 nM. In the case of `CC(F)(F)c1nc(C23CCC(CN(C(=O)C4CCC(F)(F)CC4)c4cccc(-c5cc(C6CC6)on5)c4)(CC2)CC3)no1` [Example 154, N-(3-(5-cyclopropylisoxazol-3-yl)phenyl)-N-((4-(5-(1,1-difluoroethyl)-1,2,4-oxadiazol-3-yl)bicyclo[2.2.2]octan-1-yl)methyl)-4,4-difluorocyclohexane-1-carboxamide], a half-maximal effect (EC50) was put at 57 nM. Under `CC(C)(F)c1nc(C23CCC(CN(C(=O)C4CCOCC4)c4cccc(-c5cn[nH]c(=O)c5)c4)(CC2)CC3)no1` [Example 128, N-((4-(5-(2-fluoropropan-2-yl)-1,2,4-oxadiazol-3-yl)bicyclo[2.2.2]octan-1-yl)methyl)-N-(3-(6-oxo-1,6-dihydropyridazin-4-yl)phenyl)tetrahydro-2H-pyran-4-carboxamide] stands 4000 nM; under `COCc1nc(-c2cccc(N(CC34CCC(c5nc(C6CC6)no5)(CC3)CC4)C(=O)C3CCOCC3)c2)cs1` [Example 47, N-((4-(3-cyclopropyl-1,2,4-oxadiazol-5-yl)bicyclo[2.2.2]octan-1-yl)methyl)-N-(3-(2-(methoxymethyl)thiazol-4-yl)phenyl)tetrahydro-2H-pyran-4-carboxamide], 121 nM.
